Reference: article PMC12593396 (2025)

Key:
[1] = test system: 3WJ-T6 (DNA, junction) ACTCTTCTCGTTTTTTCGAGAGCGACTTTTTTGTCGCAGAGT; assay: ITC; conditions: 100 mM NaCl, 10 mM sodium cacodylate, pH 7.4, 25 °C, at ITC detection limit
[2] = test system: 4WJ (DNA, junction) GCCTAGCATGATACTGCTACCG/CGGTAGCAGTACCGTTGGTGGC/GCCACCAACGGCGTCAACTGCC/GGCAGTTGACGTCATGCTAGGC; assay: UV melting; conditions: 100 mM NaCl; 10 mM Na cacodylate; 1 equivalent compound
[3] = test system: Cy5–3WJ-T3 (DNA, junction) CGGAACGGCACTCGTTTCGAGTGCAGCGTGGTTTCCACGCTCGTTCCG; assay: MST; conditions: 100 mM NaCl, 10 mM Na cacodylate
[4] = test system: DS-21 (CD) (DNA, duplex) CCTTCACGCGAACGTAATCCT/AGGATTACGTTCGCGTGAAGG; assay: CD; conditions: 1 equivalent compound
[5] = test system: DS-21 (MST) (DNA, duplex) CCTTCACGCGAACGTAATCCT/AGGATTACGTTCGCGTGAAGG; assay: MST; conditions: highest tested 50 μM; authors suggest Kd at best high micromolar
[6] = test system: Y-fork (DNA, junction) CGGTAGCAGTACCGTTGGTGGC/GCCACCAACGGCGTCAACTGCC; assay: PAGE competition; conditions: competes with 3WJ-FAM; ~22% decrease of 3WJ at 4 equivalents
[7] = test system: FAM–4WJ (DNA, junction) GCCTAGCATGATACTGCTACCG/CGGTAGCAGTACCGTTGGTGGC/GCCACCAACGGCGTCAACTGCC/GGCAGTTGACGTCATGCTAGGC; assay: MST; conditions: 100 mM NaCl; 10 mM Na cacodylate; not saturated, highest 100 μM

SMILES | Kd [1] | ΔTm [2] [°C] | Kd ([3]; 0.1% Tween-20, 25 °C, 1 nM DNA) | Kd ([1]; 0.5% acetonitrile) | binding [4] | binding [5] | binding [6] | Kd ([3]; 0.1% Tween, 25 °C, 20 nM DNA) | Kd [7] [µM]
C(=Nc1ccc(Cc2ccc(N=Cc3ccccn3)cc2)cc1)c1ccccn1.C(=Nc1ccc(Cc2ccc(N=Cc3ccccn3)cc2)cc1)c1ccccn1.C(=Nc1ccc(Cc2ccc(N=Cc3ccccn3)cc2)cc1)c1ccccn1.[Ni+2].[Ni+2] | 7.17 ± 0.51 × 10^–9 M | 8.8 ± 1.0 | 5.15 ± 0.67 × 10^–10 M | – | – | – | – | – | –
[Pt+2].[Pt+2].c1cncc(Oc2ccc(Oc3cccnc3)cc2)c1.c1cncc(Oc2ccc(Oc3cccnc3)cc2)c1.c1cncc(Oc2ccc(Oc3cccnc3)cc2)c1.c1cncc(Oc2ccc(Oc3cccnc3)cc2)c1 | – | 6.0 ± 1.1 | – | 9.94 ± 4.36 × 10^–9 M | weak | no | weak | 1.22 ± 0.22 × 10^–8 M | > 4
